Several values for one entry are separate records, joined by “and”; a condition that tells them apart may be missing. Equal values may be shown once.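 All cell lines were grown in 96-well plates and treated with compound for 48 hours. The concentration for 50% growth inhibition is given as GI50. The concentration for full growth arrest is given as TGI.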
Tests used:
Assay in all cases: NCI-60 cell line screen, 48 h
HCT-15 colon = system: HCT-15 colon
K-562 leukemia = system: K-562 leukemia
NCI-H226 lung = system: NCI-H226 lung
OVCAR-5 ovarian = system: OVCAR-5 ovarian
OVCAR-8 ovarian = system: OVCAR-8 ovarian
RXF 393 renal = system: RXF 393 renal
SK-MEL-28 melanoma = system: SK-MEL-28 melanoma
SK-MEL-5 melanoma = system: SK-MEL-5 melanoma
T-47D breast = system: T-47D breast
UACC-257 melanoma = system: UACC-257 melanoma

SMILES | GI50 (HCT-15 colon) | TGI (HCT-15 colon) | GI50 (K-562 leukemia) | TGI (K-562 leukemia) | GI50 (NCI-H226 lung) | TGI (NCI-H226 lung) | GI50 (OVCAR-5 ovarian) | TGI (OVCAR-5 ovarian) | GI50 (OVCAR-8 ovarian) | TGI (OVCAR-8 ovarian) | GI50 (RXF 393 renal) | TGI (RXF 393 renal) | GI50 (SK-MEL-28 melanoma) | TGI (SK-MEL-28 melanoma) | GI50 (SK-MEL-5 melanoma) | TGI (SK-MEL-5 melanoma) | GI50 (T-47D breast) | TGI (T-47D breast) | GI50 (UACC-257 melanoma) | TGI (UACC-257 melanoma)
COc1cc(/C=C/C(=O)c2c(C)nc3ccccc3c2C)ccc1OCCCN1CCN(C(=O)c2ccco2)CC1 | 5.74 µM | 30.9 µM | 2.57 µM | 10.6 µM | 13.7 µM | 29.9 µM | 18.1 µM | 32 µM | 8.43 µM | 42.4 µM | 2.8 µM | 10.2 µM | 12.7 µM | 25.3 µM | 2.12 µM | 12.6 µM | 2.5 µM | 15 µM | 3.28 µM | 16.1 µM
CSc1ccc(C(=O)/C=C/c2ccccc2Cl)cc1 | 7.73 µM | 28.9 µM | 18.8 µM | 58.3 µM | 15.8 µM | 37.6 µM | 16.1 µM | 31.6 µM | 15.8 µM | 32.5 µM | 4.23 µM | 16.4 µM | 23.4 µM | 52.9 µM | 16.7 µM | 31.6 µM | 23.5 µM | > 100 µM | 15.2 µM | 29.3 µM
Cc1ccc(OCC2OC(n3cnc4c(Br)nc(Br)nc43)CC2Oc2ccc(C)cc2)cc1 (stereo not drawn) | 1.45 µM | 3.24 µM and 4.73 µM | 1.94 µM | 3.92 µM and > 23.8 µM | 1.63 µM | 33 µM and 3.77 µM | 16.1 µM | 34.2 µM and 42.2 µM | 18.2 µM | 42.7 µM and 14.3 µM | 13.3 µM | 28.2 µM and 22.4 µM |  | 10.1 µM | 13.4 µM | 23.8 µM and 23.7 µM | 2.48 µM | 29.7 µM and 6.82 µM | 10.3 µM | 20.4 µM and 21.3 µM
Nc1ncnc2c1ccn2[C@@H]1O[C@H]([C@H](O)c2ccc(Cl)c(F)c2)[C@@H](O)[C@H]1O | > 100 µM | > 100 µM | > 100 µM | > 100 µM | 34.5 µM | > 100 µM | > 100 µM | > 100 µM | > 100 µM | > 100 µM | 66.5 µM | > 100 µM | > 100 µM | > 100 µM | 92.6 µM | > 100 µM | 23.5 µM | > 100 µM | > 100 µM | > 100 µM
CN(C)c1ccc2nc(CC(O)(C(F)(F)F)C(F)(F)F)ccc2c1 |  | > 10 µM |  | > 10 µM |  | > 10 µM |  | > 10 µM |  | > 10 µM |  | > 10 µM |  | > 10 µM |  | > 10 µM |  | > 10 µM |  | > 10 µM
Cc1nccc2c3ccc(OCc4cn(-c5ccc(Cl)cc5)nn4)cc3n(CC(C)C)c12 | 1.28 µM | 21.5 µM | 0.992 µM | > 33.3 µM | 3.47 µM | 13.7 µM | 4.68 µM | 23.2 µM | 2.73 µM | 16.2 µM | 2.85 µM | 11.8 µM | 4.14 µM | 18.2 µM | 1.64 µM | 6.15 µM | 1.34 µM | 11.3 µM | 4.62 µM | 16.8 µM
COc1ccc(N(C)c2nc(Cl)nc3cnn(C)c23)cc1 | < 0.01 µM | > 100 µM | < 0.01 µM | > 100 µM | < 0.01 µM | > 100 µM | 0.0379 µM | > 100 µM | 0.0192 µM | > 100 µM | < 0.01 µM | > 100 µM | 12.8 µM | > 100 µM | < 0.01 µM | 0.0874 µM | < 0.01 µM | > 100 µM | 29.8 µM | > 100 µM
Cn1c2ccccc2c2c(=O)n(CCCC(=O)OC(=NC3CCCCC3)NC3CCCCC3)c3c(-c4ccccc4)nnn3c21 | > 100 µM | > 100 µM | > 100 µM | > 100 µM | > 100 µM | > 100 µM | > 100 µM | > 100 µM | > 100 µM | > 100 µM | 62.8 µM | > 100 µM | > 100 µM | > 100 µM | > 100 µM | > 100 µM | 55.8 µM | > 100 µM | > 100 µM | > 100 µM
C/C(=N/N=C(N)N)c1ccc(NC(=O)Nc2ccc(/C(C)=N/N=C(N)N)cc2)cc1 | 25.5 µM | > 77.6 µM | 5.84 µM | > 59.9 µM | 25 µM | > 94.6 µM | 17.9 µM | 56.6 µM | 21.8 µM | > 78.8 µM | 20.3 µM | 42.4 µM | 15 µM | 39.9 µM | 10.6 µM | 37.9 µM | 8.29 µM | 34.6 µM | 31.1 µM | > 89.6 µM
N#CC1C(=O)NC(c2ccccc2[N+](=O)[O-])c2sc3c(F)cccc3c21 (stereo not drawn) | 10.4 µM | 61.2 µM | 2.39 µM | 58.8 µM | 0.273 µM | 2.55 µM | 0.583 µM | 4.45 µM | 9.59 µM | 80.9 µM | 13.4 µM | 56.9 µM | 29.5 µM | > 100 µM | 14.3 µM | 33.8 µM | 0.241 µM | 20.7 µM | 0.961 µM | 4.72 µM
C=CCc1c(O)c(C(=O)/C=C/c2ccccc2)c(OC)c2ccoc12 | 2.91 µM | 11.8 µM | 2.87 µM | 16.2 µM | 1.48 µM | 3.21 µM | 3.22 µM | 12.7 µM | 3.13 µM | 13.6 µM | 1.85 µM | 5.62 µM | 2.49 µM | 8.28 µM | 2.66 µM | 10.9 µM | 4.11 µM | 22.4 µM | 2.56 µM | 7.75 µM
O=c1c(Cl)cc2nc3ccccc3sc-2c1Cl |  | 32.3 µM |  | > 100 µM |  | 32.3 µM |  | 78.9 µM |  |  |  | 32.5 µM |  | 35.2 µM |  | 13.9 µM |  | > 100 µM |  | 8.2 µM
COc1ccc2c(c1)C(=O)c1c-2c(Nc2cccc(C(C)=O)c2)nc2ccccc12 | 24 µM | > 100 µM | 44.7 µM | > 100 µM | 11.7 µM | 35.8 µM | 11.4 µM | 24.5 µM | 14.5 µM | 34.7 µM | 9.79 µM | 31.5 µM | 15.1 µM | 64.6 µM | 5.22 µM | 18.9 µM | 13.6 µM | 55.2 µM | 23.9 µM | 61.7 µM

Reference: PubChem BioAssay (NCI)
